Source: EP0804147B1, “DERMATO-COSMETOLOGIC COMPOSITION” (PIERRE FABRE DERMO-COSMETIQUE, priority 1994, dated 1995)
Read-outs that look alike come from different tables or passages of the source.

What was measured:
[1] = Water retention capacity of skin flaps (stratum corneum samples soaked in active solution, dried, rehydrated; desorbed water quantified by GC-MS); details: 90% d'humidité relative
Text: Des échantillons de stratum corneum sont immergés pendant 24 heures dans une solution de l'actif à analyser. Ils sont ensuite séchés pendant 24 heures dans un dessicateur sur silicagel puis réhydratés pendant 48 heures dans une enceinte à 90% d'humidité relative.
Ces échantillons sont analysés après l'étape de séchage et après l'étape de réhydratation. La technique utilisée est la chromatographie en phase gazeuse couplée à la spectrométrie de masse.
Les échantillons de peau pesés sont placés dans un four chauffé à 100°C, la vapeur d'eau désorbée est entrainée par un gaz de balayage sec vers le chromatographe où elle sera détectée.
Un spectre est obtenu en sortie de l'appareil. L'eau désorbée est quantifiée par la mesure de l'aire du pic. Le spectromètre de masse couplé à la CPG permet de s'assurer que le composé désorbé et quantifié est bien de l'eau.
Cette technique allie donc une analyse qualitative à une analyse quantitative. Les résultats sont donnés en pourcentage d'eau retenue et permettent donc d'évaluer le pouvoir hygroscopique des produits.
Les résultats sont présentés sur la figure 1.

[2] = for effet hydratant: topical on forearm, 0-6 h
Text: La spectroscopie infrarouge in vivo est une technique non invasive, rapide et de grande sensibilité. Les molécules absorbent toutes différemment le rayonnement infrarouge. C'est en analysant leur spectre d'absorption que l'on peut retrouver la structure de la molécule.
En fonction de l'application de divers traitements, des liaisons entre l'eau apportée et la peau se créent et entraînent des modifications de certaines bandes d'absorption.
Ainsi seront analysés sur le spectre les pics suivants : • le pic d'absorption dû à l'élongation de la liaison OH de l'eau à 2100 cm-1. Les variations d'intensité de ce pic ne sont pas visibles à l'oeil nu mais elles sont significatives et donc enregistrées. • le pic d'absorption dû à l'élongation des liaisons amide I à 1640 cm-1. L'élongation de cette liaison se trouve modifiée lorsque des liaisons hydrogènes se créent par apport d'eau. • le pic d'absorption dû à l'élongation des liaisons amide II à 1540 cm-1. Ce pic n'est influencé par la présence d'eau que de façon négligeable; il est donc utilisé pour pondérer les deux pics précédents.
Les préparations cosmétiques à tester sont appliquées sur une zone délimitée de l'avant-bras. Une zone non traitée est conservée comme témoin.
Pour chaque spectre obtenu sont mesurés les rapports suivants : (amideI)/(amideII)appelé facteur d'hydratation (ou MF); (eau)/(amideII) [formula]
Ces rapports sont calculés aux temps 0, 1, 2, ..., 6 heures et les courbes suivantes sont tracées : MF témoin(t) - MF bras traité(t) = f(t) avec t, représentant le temps en heures.; (eau)/(amideII)témoin(t) -(eau)/(amideII)bras traité(t) = f(t) [formula]
L'allure de ces courbes est ensuite comparée. En effet, le pic des amides I pourrait être directement influencé par le produit appliqué alors que le pic à 2100 cm-1 n'est influencé que par l'eau.
Si les deux courbes obtenues évoluent dans le même sens, on peut considérer que la variation enregistrée rend bien compte de la fixation de l'eau sur la peau. Dans le cas contraire, il faut émettre des réserves sur les conclusions à apporter.
On teste par cette technique des crèmes contenant 5% et 13% de glycolate de guanidine, de formules suivantes (les pourcentages sont exprimés en p/p) :
Les effets sont comparés avec ceux de compositions contenant : • 15% glycérol • 5% glycérol • 13% lactate d'ammonium • 5% lactate d'ammonium.

[3] = test system: contaminations microbiennes; details: cream containing 13%, no other preservative
Corynébactéries = details: bacteria involved in body odour (armpits)
[4] = compared with lactate d'ammonium

Row | Compound | eau retenue ([1]; skin treated with 15% solution) [%] | eau retenue ([1]; skin treated with 13% solution) [%] | effet hydratant ([2]; cream containing 5% (formula B), figure 3) | durée de la différence d'hydratation ([2]; cream containing 5% vs 5% glycérol cream) [heures] | effet hydratant ([2]; cream containing 13% (formula A), figure 2) | durée de la différence d'hydratation ([2]; cream containing 13% vs placebo and 13% lactate d'ammonium cream) [heures] | protection contre les contaminations microbiennes (conservateur) [3] | activité bactéricide (Corynébactéries) | propriétés kératorégulatrices [4]
1 | OCC(O)CO [glycérol] | 125 | – | – | – | – | – | – | – | –
2 | CC(O)C(=O)O (stereo not shown) [lactate d'ammonium] | – | 135 | – | – | – | – | – | – | –
3 | glycolate de guanidine | – | 300 | beaucoup plus hydratante que celle contenant 5% de glycérol | > 6 | beaucoup plus hydratante que le placebo et que la crème contenant 13% de lactate d'ammonium | > 6 | s'auto-protège contre les contaminations microbiennes | actif sur des bactéries impliquées dans la formation d'odeurs corporelles | supérieures à celles du lactate d'ammonium
